In patent US7700638B2, “1,5,7-trisubstituted benzimidazole derivatives and their use for modulating the GABAA receptor complex” (N. V. Organon, priority 2003, dated 2010):
Where a name gives a salt, the structure may show the parent alone.

Each compound was assayed against GABA recognition site and the benzodiazepine modulatory unit (GABAA receptor complex), cerebral cortex membranes (assay: In vitro inhibition of 3H-flunitrazepam (3H-FNM) binding). Settings: inhibition of specific binding of 3H-FNM (1 nM), cerebral cortex membranes from male Wistar rats, 40 min at 2° C.
Set-up: species or system rat
Description: In vitro Inhibition of ^3H-flunitrazepam (^3H-FNM) Binding
The GABA recognition site and the benzodiazepine modulatory unit can selectively be labelled with ^3H-flunitrazepam.
Preparations are performed at 0-4° C. unless otherwise indicated. Cerebral cortex from male Wistar rats (150-200 g) is homogenised for 5-10 sec in 20 ml […] (30 mM, pH 7.4) using an Ultra-Turrax homogeniser. The suspension is centrifuged at 27,000×g for 15 min and the pellet is washed three times with buffer (centrifuged at 27,000×g for 10 min). The washed pellet is homogenized in 20 ml of buffer and incubated on a water bath (37° C.) for 30 min to remove endogenous GABA and then centrifuged for 10 min at 27,000×g. The pellet is then homogenized in buffer and centrifuged for 10 min at 27,000×g. The final pellet is resuspended in 30 ml buffer and the preparation is frozen and stored at −20° C.
The membrane preparation is thawed and centrifuged at 2° C. for 10 min at 27,000×g. The pellet is washed twice with 20 ml 50 mM Tris-citrate, pH 7.1 using an Ultra-Turrax homogeniser and centrifuged for 10 min at 27,000×g. The final pellet is resuspended in 50 mM Tris-citrate, pH 7.1 (500 ml buffer per g of original tissue), and then used for binding assays. Aliquots of 0.5 ml tissue are added to 25 μl of test solution and 25 μl of ^3H-FNM (1 nM, final concentration), mixed and incubated for 40 min at 2° C. Non-specific binding is determined using Clonazepam (1 μM, final concentration). After incubation the samples are added 5 ml of ice-cold buffer and poured directly onto Whatman GF/C glass fibre filters under suction and immediately washed with 5 ml ice-cold buffer. The amount of radioactivity on the filters is determined by conventional liquid scintillation counting. Specific binding is total binding minus non-specific binding.
25-75% inhibition of specific binding must be obtained, before calculation of an IC50.
The test value will be given as IC50 (the concentration (μM) of the test substance which inhibits the specific binding of ^3H-FNM by 50%).
Co is specific binding in control assays, and
Cx is the specific binding in the test assay.
(The calculations assume normal mass-action kinetics).

Compound | IC50
CCN(CC)C(=O)C=Cc1cc(C(F)(F)F)cc2ncn(-c3ccccc3)c12 [Example 65, N,N-Diethyl-3-(3-phenyl-6-trifluoromethyl-3H-benzimidazol-4-yl)acrylamide] | 20 nM
CN(CCC#N)CCCCc1cc(C(F)(F)F)cc2ncn(-c3ccccc3)c12 [Example 88, 7-(4-((N-(2-Cyanoethyl)-N-methyl)amino)-1-butyl)-1-phenyl-5-trifluoromethylbenzimidazole trifluoroacetic acid salt] | 100 nM
CCN(CC)C(=O)CCc1cc(C(F)(F)F)cc2ncn(-c3ccccc3)c12 [Example 81, N,N-Diethyl-3-(3-Phenyl-6-trifluoromethyl-3H-benzimidazol-4-yl)propionamide] | 38 nM
FC(F)(F)c1cc(C#CCN2CCOCC2)c2c(c1)ncn2-c1ccccc1 [Example 80, 7-(3-(4-Morpholino)prop-1-ynyl)-1-phenyl-5-trifluoromethylbenzimidazole trifluoroacetic acid salt] | 180 nM
Nc1cccc(-c2cc(C=NO)cc3ncn(-c4ccccc4)c23)c1 [Example 6, 7-(3-Aminophenyl)-5-formyl-1-phenylbenzimidazole oxime] | 4.2 nM
COC(=O)C=Cc1cc(C(F)(F)F)cc2ncn(-c3ccccc3)c12 [Example 57, 3-(3-Phenyl-6-trifluoromethyl-3H-benzimidazol-4-yl)acrylic acid methyl ester] | 46 nM
CCN(CC)Cc1ccc(-c2cc(C#N)cc3ncn(-c4ccccc4)c23)cc1 [Example 41, 5-Cyano-7-(4-diethylaminomethylphenyl)-1-phenylbenzimidazole trifluoroacetic acid salt] | 27 nM
OCc1cc(-c2cccc(OC(F)(F)F)c2)c2c(c1)ncn2-c1ccccc1 [Example 51, 5-(Hydroxymethyl)-1-phenyl-7-(3-trifluoromethoxyphenyl)benzimidazole] | 12 nM
N#Cc1cccc(C=Nc2cc(C(F)(F)F)cc3ncn(-c4ccccc4)c23)c1 [Example 10, 7-(N-(3-cyanobenzylidene)amino)-1-phenyl-5-trifluoromethylbenzimidazole] | 18 nM
7-[1-(3-Dimethylamino)pyrrolidinyl]-1-phenyl-5-trifluoromethylbenzimidazole trifluoroacetic acid salt [Example 94] | 90 nM
OCc1cccc(-c2cc(C(F)(F)F)cc3ncn(-c4ccccc4)c23)c1 [Example 12, 7-(3-(Hydroxymethyl)phenyl)-1-phenyl-5-trifluoromethylbenzimidazole] | 30 nM
CCOC(=O)c1cc(-c2cccc(CN3CCN(C)CC3)c2)c2c(c1)ncn2-c1ccccc1 [Example 33, 5-Ethoxycarbonyl-7-(3-((1-methylpiperazin-4-yl)methyl)phenyl)-1-phenylbenzimidazole] | 19 nM
FC(F)(F)c1cc(C#CCN2CC=CCC2)c2c(c1)ncn2-c1ccccc1 [Example 92, 1-Phenyl-7-(3-(1-(1,2,3,6-tetrahydropyridinyl))prop-1-ynyl)-5-trifluoromethylbenzimidazole] | 48 nM
COc1ccc(-c2cc(C#N)cc3ncn(-c4ccccc4)c23)cc1 [Example 23, 5-Cyano-7-(4-methoxyphenyl)-1-phenylbenzimidazole] | 38 nM
